These results are taken from ChEMBL document CHEMBL1201862, “PubChem BioAssay data set” (2004).

Each structure is given as a SMILES string. Counter-ions that a name gives are not always drawn.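 Results reflect a 48-hour exposure of cells in 96-well plates to compound at five concentrations. GI50 marks 50% less growth.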 Activity calls are given as the source filed them. Rule as the data show it: active = GI50 up to about 1.1 µM and inactive = higher. Where only a bound is given, the exact number is not on record here.

Test systems include A549; BT-549; CCRF-CEM; COLO 205; K562; MDA-MB-231; MDA-MB-435; MOLT-4; NCI-H23; NCI-H460; SF-268; SF-539; SK-MEL-28; SK-MEL-2; SNB-19; SNB-75; T47D; TK-10; UACC-257.
What all share (test): NCI anticancer screen, dose series, 48 h

For `Cc1cc(C)n(CC(Cn2nc(C)cc2C)=C(/C(Cl)=C(/Cl)Nc2ccc([N+](=O)[O-])cc2)[N+](=O)[O-])n1`, the GI50 in the assay on A549 was 3.43 µM (inactive); with BT-549, 3.33 µM (inactive); with CCRF-CEM it was 0.558 µM (active); with COLO 205 it was 2.67 µM (inactive); in the assay on K562 it was 1.65 µM (inactive); in the assay with MDA-MB-231, 6.05 µM (inactive). The GI50 in the assay on MDA-MB-435 was 1.84 µM (inactive); in the assay with MOLT-4, 1.79 µM (inactive); in the assay with NCI-H23, 2.43 µM (inactive); with NCI-H460, 3.33 µM (inactive); with SF-268 it was 5.01 µM (inactive); with SF-539, 3.52 µM (inactive). In addition, the GI50 in the assay with SK-MEL-28 was 7.06 µM (inactive); in the assay on SK-MEL-2 it was 3.05 µM (inactive); with SNB-19 it was 4.49 µM (inactive); in the assay on SNB-75, 4.67 µM (inactive); in the assay with T47D it was 3.33 µM (inactive); with TK-10 it was 3.78 µM (inactive). In addition, the GI50 in the assay on UACC-257 was 3.4 µM (inactive).

With `NS(=O)(=O)c1ccc(/N=N/c2ccc(O)cc2)cc1`, the GI50 in the assay on A549 was 28.3 µM (inactive); with BT-549 it was 10.5 µM (inactive); in the assay with CCRF-CEM it was 62.1 µM (inactive); in the assay on COLO 205, 46.3 µM (inactive); with K562, 7.46 µM (inactive); with MDA-MB-231 it was 64.3 µM (inactive). Also, the GI50 is 11.3 µM (inactive) in the assay on MDA-MB-435; 4.25 µM (inactive) in the assay on MOLT-4; 55.6 µM (inactive) in the assay on NCI-H23; 31.1 µM (inactive) in the assay with NCI-H460; 53.6 µM (inactive) with SF-268; 31.9 µM (inactive) with SF-539. Further, the GI50 was 21.4 µM (inactive) with SK-MEL-28; 32.7 µM (inactive) with SK-MEL-2; 83.2 µM (inactive) in the assay with SNB-19; 19.1 µM (inactive) with SNB-75; 31.3 µM (inactive) in the assay with T47D; > 100 µM (inactive) with TK-10. For the same compound, the GI50 in the assay on UACC-257 is 51.2 µM (inactive).

In the case of `OC(CNc1ccccn1)c1ccccc1` (stereo not given) [PHENYRAMIDOL HYDROCHLORIDE], the GI50 was > 100 µM (inactive) in the assay on A549; > 100 µM (inactive) in the assay with BT-549; > 100 µM (inactive) in the assay on CCRF-CEM; > 100 µM (inactive) with COLO 205; 85.5 µM (inactive) in the assay with K562; > 100 µM (inactive) with MDA-MB-231. The GI50 in the assay on MDA-MB-435, in the assay on MOLT-4, in the assay with NCI-H23, in the assay on NCI-H460, in the assay on SF-268 and in the assay on SF-539 was > 100 µM (inactive) throughout. In addition, the GI50 in the assay with SK-MEL-28, in the assay on SK-MEL-2, with SNB-19, in the assay with SNB-75, in the assay with T47D and in the assay with TK-10 was > 100 µM (inactive) in each case. Moreover, the GI50 with UACC-257 was > 100 µM (inactive).

With `NCCCCNCCCNC(=O)CNC(=O)CC(O)C(N)CCCC(NC(=O)C(CN)NC(=O)C(O)CNC(=O)CC(N)c1ccc(O)cc1)C(=O)O` (stereo not given), the GI50 in the assay on A549, with BT-549, with CCRF-CEM, in the assay on COLO 205, with K562 and in the assay with MDA-MB-231 was > 10 µM (inactive) throughout. Further, the GI50 with MDA-MB-435, in the assay on MOLT-4, in the assay with NCI-H23, in the assay with NCI-H460, with SF-268 and in the assay on SF-539 was > 10 µM (inactive) each time. The GI50 in the assay with SK-MEL-28, in the assay with SK-MEL-2, with SNB-19, in the assay with SNB-75, with T47D and with TK-10 was > 10 µM (inactive) throughout. Further, the GI50 with UACC-257 is > 10 µM (inactive).

`FC(F)(F)c1ccc2nc(Sc3ccc4ccccc4c3)cnc2c1`: the GI50 is > 100 µM (inactive) in the assay with A549; > 100 µM (inactive) in the assay with BT-549; 24.4 µM (inactive) in the assay with CCRF-CEM; 75 µM (inactive) with COLO 205; 45.8 µM (inactive) with K562; 62.7 µM (inactive) with MDA-MB-231. Also, the GI50 with MDA-MB-435 was 55.2 µM (inactive); in the assay on MOLT-4, 24.5 µM (inactive); with NCI-H23 it was 41.9 µM (inactive); in the assay with NCI-H460, 73.1 µM (inactive); with SF-268, > 100 µM (inactive); in the assay with SF-539, 36.3 µM (inactive). Besides, the GI50 in the assay with SK-MEL-28 is > 100 µM (inactive); in the assay with SK-MEL-2, 23.1 µM (inactive); in the assay on SNB-19, > 100 µM (inactive); with SNB-75, > 100 µM (inactive); with T47D it was 23.1 µM (inactive); with TK-10, > 100 µM (inactive). The GI50 with UACC-257 is 43.8 µM (inactive).

For the compound `C[C@@H](CC(=O)O)OC1OC(COC(=O)C(C)(C)C)C(OC(=O)C(C)(C)C)C(OC(=O)C(C)(C)C)C1OC(=O)C(C)(C)C` (stereo not given in full), the GI50 was 45 µM (inactive) in the assay on A549; 57 µM (inactive) with BT-549; 26.5 µM (inactive) in the assay with CCRF-CEM; 32.8 µM (inactive) in the assay with COLO 205; 34.4 µM (inactive) in the assay with K562; > 100 µM (inactive) with MDA-MB-231. The GI50 in the assay on MDA-MB-435 is 53.3 µM (inactive); in the assay on MOLT-4 it was 38.6 µM (inactive); in the assay with NCI-H23, 27.2 µM (inactive); with NCI-H460, 29 µM (inactive); with SF-268, 50.7 µM (inactive); in the assay with SF-539, 52.8 µM (inactive). The GI50 is 89.7 µM (inactive) in the assay on SK-MEL-28; 49 µM (inactive) with SK-MEL-2; 28.2 µM (inactive) in the assay with SNB-19; 72.8 µM (inactive) with SNB-75; 45.9 µM (inactive) in the assay on T47D; 99.3 µM (inactive) with TK-10. The GI50 in the assay with UACC-257 was > 100 µM (inactive).

For the compound `O=C1C(c2c(O)[nH]c3ccc(I)cc23)=Nc2ccccc21`, the GI50 was 3.84 µM (inactive) in the assay on A549; 7.53 µM (inactive) in the assay on BT-549; 39.6 µM (inactive) in the assay with CCRF-CEM; 11.6 µM (inactive) in the assay on COLO 205; 9.66 µM (inactive) in the assay on K562; 2.65 µM (inactive) with MDA-MB-231. The GI50 is 12.1 µM (inactive) in the assay on MDA-MB-435; 49.2 µM (inactive) with MOLT-4; 5.61 µM (inactive) in the assay on NCI-H23; 10.4 µM (inactive) with NCI-H460; 4.07 µM (inactive) in the assay on SF-268; 5.27 µM (inactive) in the assay on SF-539. In addition, the GI50 in the assay on SK-MEL-28 was 11.2 µM (inactive); in the assay with SK-MEL-2, 3.78 µM (inactive); with SNB-19 it was 4.95 µM (inactive); in the assay with SNB-75 it was 4.23 µM (inactive); in the assay with T47D it was 3.51 µM (inactive); in the assay on TK-10 it was 4.54 µM (inactive). For the same compound, the GI50 in the assay on UACC-257 was 17.9 µM (inactive).

As to `COc1cc2[nH]c(=O)c3cc(-c4ccccc4)cc4c(Cl)nc(c1OC)c2c43`, the GI50 is 23.2 µM (inactive) in the assay with A549; 43.2 µM (inactive) with BT-549; 4.88 µM (inactive) in the assay on CCRF-CEM; 11.6 µM (inactive) with COLO 205; 38.2 µM (inactive) in the assay with K562; 3.64 µM (inactive) with MDA-MB-231. Also, the GI50 in the assay with MDA-MB-435 is 2.81 µM (inactive); in the assay with MOLT-4, 4.63 µM (inactive); with NCI-H23, 15.3 µM (inactive); in the assay on NCI-H460 it was 21 µM (inactive); with SF-268 it was 16.1 µM (inactive); in the assay on SF-539 it was 0.63 µM (active). Besides, the GI50 is 32.1 µM (inactive) in the assay with SK-MEL-28; 15.1 µM (inactive) with SK-MEL-2; 28.1 µM (inactive) with SNB-19; > 39.4 µM (inactive) with SNB-75; 24.4 µM (inactive) with T47D; 29.6 µM (inactive) in the assay on TK-10. In addition, in the assay with UACC-257, the GI50 was 4.69 µM (inactive).

As for `CN(C)CCNC(=O)c1cccc(C(=O)Nc2ccccc2)c1[N+](=O)[O-]`, the GI50 in the assay with A549 is > 100 µM (inactive); in the assay on BT-549, 34 µM (inactive); in the assay on CCRF-CEM it was > 100 µM (inactive); with COLO 205, 54.2 µM (inactive); with K562, > 100 µM (inactive); in the assay with MDA-MB-231 it was > 100 µM (inactive). Further, the GI50 with MDA-MB-435, in the assay on MOLT-4, with NCI-H23, in the assay on NCI-H460, in the assay with SF-268 and in the assay with SF-539 was > 100 µM (inactive) each time. Further, the GI50 was > 100 µM (inactive) with SK-MEL-28; > 100 µM (inactive) with SK-MEL-2; > 100 µM (inactive) with SNB-19; 34.8 µM (inactive) with SNB-75; > 100 µM (inactive) in the assay with T47D; > 100 µM (inactive) in the assay with TK-10. For the same compound, the GI50 in the assay on UACC-257 is > 100 µM (inactive).

For `NC1=CN(CCCO)C2=N/C(=C\c3ccccc3)C(=O)N12`, the GI50 in the assay on A549, with BT-549, in the assay with CCRF-CEM, in the assay with COLO 205, in the assay with K562 and in the assay on MDA-MB-231 was > 100 µM (inactive) throughout. Besides, the GI50 in the assay on MDA-MB-435, with MOLT-4, with NCI-H23, in the assay on NCI-H460, in the assay on SF-268 and with SF-539 was > 100 µM (inactive) each time. Besides, the GI50 in the assay on SK-MEL-28, with SK-MEL-2, in the assay on SNB-19, in the assay with SNB-75, in the assay on T47D and with TK-10 was > 100 µM (inactive) throughout. Further, the GI50 in the assay on UACC-257 was > 100 µM (inactive).
